Results reported in the supplement of paper PMC11451515.

Tested on: NOMO1
Test: cell viability relative to DMSO control; higher = less cytotoxic
Settings: 48 h
In short: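 NOMO1 or SEM cells were plated at 500 cells/well and P12-Ichikawa cells at 1000 cells/well in 1536-well plates (5 μl), after each leukemia line had been adapted for at least four passages in each medium. Pin dosing delivered library compounds in DMSO at 11 threefold concentrations, 47 μM to 0.79 nM. CellTiter-Glo One luminescence was read after 48 h at 37°C. Viability is reported as a per-plate percentage of DMSO wells, with cell-free wells as background.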

[1] = HPLM + 10% dialyzed FBS, 0.000781 µM
[2] = HPLM + 10% dialyzed FBS, 0.00234 µM
[3] = HPLM + 10% dialyzed FBS, 0.00702 µM
[4] = HPLM + 10% dialyzed FBS, 0.0211 µM
[5] = HPLM + 10% dialyzed FBS, 0.0632 µM
[6] = HPLM + 10% dialyzed FBS, 0.19 µM
[7] = HPLM + 10% dialyzed FBS, 0.569 µM
[8] = HPLM + 10% dialyzed FBS, 1.71 µM
[9] = HPLM + 10% dialyzed FBS, 5.12 µM
[10] = HPLM + 10% dialyzed FBS, 15.4 µM
[11] = HPLM + 10% dialyzed FBS, 46.1 µM
[12] = RPMI 5 mM glucose + 10% FBS, 0.000781 µM
[13] = RPMI 5 mM glucose + 10% FBS, 0.00234 µM
[14] = RPMI 5 mM glucose + 10% FBS, 0.00702 µM
[15] = RPMI 5 mM glucose + 10% FBS, 0.0211 µM
[16] = RPMI 5 mM glucose + 10% FBS, 0.0632 µM
[17] = RPMI 5 mM glucose + 10% FBS, 0.19 µM
[18] = RPMI 5 mM glucose + 10% FBS, 0.569 µM
[19] = RPMI 5 mM glucose + 10% FBS, 1.71 µM
[20] = RPMI 5 mM glucose + 10% FBS, 5.12 µM
[21] = RPMI 5 mM glucose + 10% FBS, 15.4 µM
[22] = RPMI 5 mM glucose + 10% FBS, 46.1 µM
[23] = RPMI 5 mM glucose + 10% dialyzed FBS, 0.000781 µM
[24] = RPMI 5 mM glucose + 10% dialyzed FBS, 0.00234 µM
[25] = RPMI 5 mM glucose + 10% dialyzed FBS, 0.00702 µM
[26] = RPMI 5 mM glucose + 10% dialyzed FBS, 0.0211 µM
[27] = RPMI 5 mM glucose + 10% dialyzed FBS, 0.0632 µM
[28] = RPMI 5 mM glucose + 10% dialyzed FBS, 0.19 µM
[29] = RPMI 5 mM glucose + 10% dialyzed FBS, 0.569 µM
[30] = RPMI 5 mM glucose + 10% dialyzed FBS, 1.71 µM
[31] = RPMI 5 mM glucose + 10% dialyzed FBS, 5.12 µM
[32] = RPMI 5 mM glucose + 10% dialyzed FBS, 15.4 µM
[33] = RPMI 5 mM glucose + 10% dialyzed FBS, 46.1 µM

| Compound | cell viability [1] | cell viability [2] | cell viability [3] | cell viability [4] | cell viability [5] | cell viability [6] | cell viability [7] | cell viability [8] | cell viability [9] | cell viability [10] | cell viability [11] | cell viability [12] | cell viability [13] | cell viability [14] | cell viability [15] | cell viability [16] | cell viability [17] | cell viability [18] | cell viability [19] | cell viability [20] | cell viability [21] | cell viability [22] | cell viability [23] | cell viability [24] | cell viability [25] | cell viability [26] | cell viability [27] | cell viability [28] | cell viability [29] | cell viability [30] | cell viability [31] | cell viability [32] | cell viability [33] |
| --- | --- | --- | --- | --- | --- | --- | --- | --- | --- | --- | --- | --- | --- | --- | --- | --- | --- | --- | --- | --- | --- | --- | --- | --- | --- | --- | --- | --- | --- | --- | --- | --- | --- |
| Cc1nc(NC(=O)N2CCC[C@H]2C(N)=O)sc1-c1ccnc(C(C)(C)C(F)(F)F)c1 | 99.5% | 96.2% | 105% | 81.2% | 85.9% | 81.5% | 75.9% | 70.1% | 46.2% | 44.4% | 71.7% | 86.8% | 84.8% | 88% | 82.7% | 87.5% | 80.2% | 79.4% | 77.8% | 56.3% | 55.3% | 82.5% | 79.6% | 84.8% | 82.2% | 76.8% | 82.2% | 75.6% | 67.8% | 69.2% | 48.3% | 48.2% | 87.7% |
| CCCc1nc(C(C)(C)O)c(C(=O)O)n1Cc1ccc(-c2ccccc2-c2nn[nH]n2)cc1 | 97.7% | 111% | 107% | 114% | 119% | 120% | 149% | 115% | 113% | 119% | 126% | 107% | 103% | 105% | 110% | 105% | 125% | 123% | 113% | 112% | 114% | 124% | 106% | 104% | 115% | 116% | 114% | 117% | 124% | 113% | 128% | 126% | 112% |
| CN(CC#C)C/C1=C/C2=CC=CC=C2OC3=CC=CC=C13 | 82.4% | 98.5% | 91.5% | 89.2% | 98.9% | 91.2% | 85.2% | 70.4% | 82.3% | 65.1% | 64% | 81.3% | 85.1% | 82.2% | 94.4% | 86.3% | 77.5% | 92.6% | 81.3% | 80% | 85.1% | 75.5% | 89.1% | 81.7% | 83.8% | 87% | 91.5% | 78.4% | 81.1% | 84.4% | 93.6% | 87.1% | 80.6% |
